# Results: ChEMBL document CHEMBL5543113, “Amphiphilic α-Peptoid-deoxynojirimycin Conjugate-based Multivalent Glycosidase Inhibitor for Hypoglycemic Effect and Fluorescence Imaging” (J Med Chem, 2024)
# Experiments:
# Mus musculus [1] = experiment: Binding affinity to mouse alpha-glucosidase assessed as DNJ fluorescence intensity at 2 x 10^-4 M administered as Nile red complex in presence of DNJ by fluorescence spectra analysis (reference value: 1627); conditions: dose 2.0 10^-4M
# Oryza sativa = experiment: Potency index, ratio of miglitol Ki to test compound Ki for inhibition of rice Alpha-glucosidase incubated for 10 mins by Lineweaver-Burk plot analysis
# [2] = Self assembly property of the compound in water assessed as mean diameter at 1 x 10^-4 M by dynamic light scattering spectrometric analysis; type: physicochemical; conditions: buffer, 100 µM; dose 1 10^-4M
# Mus musculus [3] = experiment: Hypoglycemic activity in KKAy diabetic mouse model assessed as decrease in PBG level at 1.6 mg/kg, po co-administered with maltose and measured after 60 mins by glucometer relative to control; type: functional; parameters: scale not given: the % may be the effect or the level left; conditions: 1 h
# [4] = Self assembly property of the compound assessed as diameter at 5 x 10^-5 mol/L by dynamic light scattering spectrometric analysis; type: physicochemical; conditions: 50 µM; dose 5 10^-5mol/L
# [5] = Drug uptake in C57/6J mouse heart assessed as increase in fluorescence at 5 x 10^-5M, po administered as Nile red complex and measured after 4 hrs by fluorescence imaging analysis; type: ADME, organism-based; conditions: in vivo, dose 5 10^-5M
# Mus musculus [6] = experiment: Relative hypoglycemic rate in C57BL/6J mouse assessed as molar reduction in PBG level by measuring fold change at 1.6 mg/kg, po co-administered with maltose and measured after 30 mins by glucometer relative to miglitol; type: functional; conditions: 0.5 h
# [7] = Stability of compound in simulated gastric fluid assessed as fluorescence intensity at 2 x 10^-4 M administered as Nile red complex by fluorescence spectra analysis (reference value: 3548); type: ADME; conditions: simulated gi fluid, 200 µM; dose 2 10^-4M
# Mus musculus [8] = experiment: Hypoglycemic activity in KKAy diabetic mouse model assessed as decrease in PBG level at 1.6 mg/kg, po co-administered with maltose and measured after 120 mins by glucometer relative to control; type: functional; parameters: scale not given: the % may be the effect or the level left; conditions: 2 h
# Mus musculus [9] = experiment: Relative hypoglycemic rate in KKAy diabetic mouse model assessed as reduction in PBG level by measuring fold change at 1.6 mg/kg, po co-administered with maltose and measured after 30 mins by glucometer relative to miglitol; type: functional; conditions: 0.5 h
# [10] = Self assembly property of the compound in water assessed as diameter at 1 x 10^-4 M by transmission electron microscopic analysis; type: physicochemical; conditions: buffer, 100 µM; dose 1 10^-4M
# Mus musculus [11] = experiment: Relative hypoglycemic rate in KKAy diabetic mouse model assessed as molar reduction in PBG level by measuring fold change at 1.6 mg/kg, po co-administered with maltose and measured after 30 mins by glucometer relative to miglitol; type: functional; conditions: 0.5 h
# Mus musculus [12] = experiment: Hypoglycemic activity in C57BL/6J mouse assessed as reduction in PBG level measured per DNJ unit at 1.6 mg/kg, po co-administered with maltose and measured at 15 to 30 mins by glucometer relative to control; type: functional; parameters: scale not given: the % may be the effect or the level left; conditions: time 15-30 min
# [13] = Toxicity in C57BL/6J mouse assessed as effect on spleen morphology at 1.6 mg/kg, po co-administered with maltose for 7 days by Hematoxylin and eosin staining based analysis; type: organism-based; conditions: in vivo, 168 h, time 7 day
# [14] = Self assembly property of the compound assessed as diameter at 7.5 x 10^-5 mol/L by dynamic light scattering spectrometric analysis; type: physicochemical; conditions: 75 µM; dose 7.5 10^-5mol/L
# [15] = Binding affinity to mouse alpha-glucosidase assessed as binding constant administered as Nile red complex by fluorescence spectra analysis
# Mus musculus [16] = experiment: Hypoglycemic activity in C57BL/6J mouse assessed as decrease in PBG level at 0.4 mg/kg, po co-administered with maltose and measured after 30 mins by glucometer relative to control; type: functional; parameters: scale not given: the % may be the effect or the level left; conditions: 0.5 h
# Mus musculus [17] = experiment: Hypoglycemic activity in KKAy diabetic mouse model assessed as molar decrease in PBG level at 1.6 mg/kg, po co-administered with maltose and measured after 30 mins by glucometer relative to control; type: functional; parameters: scale not given: the % may be the effect or the level left; conditions: 0.5 h
# [18] = Drug uptake in C57/6J mouse liver assessed as increase in fluorescence at 5 x 10^-5M, po administered as Nile red complex and measured after 4 hrs by fluorescence imaging analysis; type: ADME, organism-based; conditions: in vivo, dose 5 10^-5M
# [19] = Self assembly property of the compound assessed as diameter at 1 x 10^-4 mol/L by dynamic light scattering spectrometric analysis; type: physicochemical; conditions: 100 µM; dose 1 10^-4mol/L
# [20] = Toxicity in C57BL/6J mouse assessed as effect on kidney morphology at 1.6 mg/kg, po co-administered with maltose for 7 days by Hematoxylin and eosin staining based analysis; type: organism-based; conditions: in vivo, 168 h, time 7 day
# [21] = Self assembly property of the compound assessed as diameter at 2.5 x 10^-5 mol/L by dynamic light scattering spectrometric analysis; type: physicochemical; conditions: 25 µM; dose 2.5 10^-5mol/L
# Mus musculus [22] = experiment: Hypoglycemic activity in C57BL/6J mouse assessed as reduction in PBG level measured per DNJ unit at 0.4 mg/kg, po co-administered with maltose and measured at 15 to 30 mins by glucometer relative to control; type: functional; parameters: scale not given: the % may be the effect or the level left; conditions: time 15-30 min
# [23] = Inhibition of rice Alpha-glucosidase incubated for 10 mins by Lineweaver-Burk plot analysis; parameters: species or system Oryza sativa
# Mus musculus [24] = experiment: Hypoglycemic activity in KKAy diabetic mouse model assessed as blood glucose level at 1.6 mg/kg, po co-administered with maltose and measured after 30 mins by glucometer (reference value: 582.6 +/- 22.9 mg/dl); type: functional; conditions: 0.5 h
# Mus musculus [25] = experiment: Hypoglycemic activity in C57BL/6J mouse assessed as blood glucose level at 0.4 mg/kg, po co-administered with maltose and measured after 30 mins by glucometer (380.8 +/- 20.6 mg/dL); type: functional; conditions: 0.5 h
# Mus musculus [26] = experiment: Hypoglycemic activity in C57BL/6J mouse assessed as decrease in PBG level at 0.8 mg/kg, po co-administered with maltose and measured after 30 mins by glucometer relative to control; type: functional; parameters: scale not given: the % may be the effect or the level left; conditions: 0.5 h
# [27] = Self assembly property of the compound assessed as diameter at 1 x 10^-5 mol/L by dynamic light scattering spectrometric analysis; type: physicochemical; conditions: 10 µM; dose 1 10^-5mol/L
# Mus musculus [28] = experiment: Hypoglycemic activity in C57BL/6J mouse assessed as blood glucose level at 1.6 mg/kg, po co-administered with maltose and measured after 15 mins by glucometer (380.8 +/- 20.6 mg/dL); type: functional; conditions: 0.25 h
# Mus musculus [29] = experiment: Hypoglycemic activity in C57BL/6J mouse assessed as decrease in PBG level at 1.6 mg/kg, po co-administered with maltose and measured after 15 mins by glucometer relative to control; type: functional; parameters: scale not given: the % may be the effect or the level left; conditions: 0.25 h
# Mus musculus [30] = experiment: Relative hypoglycemic rate in C57BL/6J mouse assessed as reduction in PBG level by measuring fold change at 1.6 mg/kg, po co-administered with maltose and measured after 30 mins by glucometer relative to miglitol; type: functional; conditions: 0.5 h
# Mus musculus [31] = experiment: Hypoglycemic activity in C57BL/6J mouse assessed as blood glucose level at 0.8 mg/kg, po co-administered with maltose and measured after 15 mins by glucometer (380.8 +/- 20.6 mg/dl); type: functional; conditions: 0.25 h
# [32] = Drug uptake in C57/6J mouse small intestine assessed as increase in fluorescence at 5 x 10^-5M, po administered as Nile red complex and measured upto 2 hrs by fluorescence imaging analysis; type: ADME, organism-based; conditions: in vivo, dose 5 10^-5M
compound,measurement,setting,value
CCCCCCCCCCCCCCCCCCNC(=O)CN(Cc1cn(CCCCCCN2C[C@H](O)[C@@H](O)[C@H](O)[C@H]2CO)nn1)C(=O)CN(Cc1cn(CCCCCCN2C[C@H](O)[C@@H](O)[C@H](O)[C@H]2CO)nn1)C(=O)CN(Cc1cn(CCCCCCN2C[C@H](O)[C@@H](O)[C@H](O)[C@H]2CO)nn1)C(=O)CN(Cc1cn(CCCCCCN2C[C@H](O)[C@@H](O)[C@H](O)[C@H]2CO)nn1)C(C)=O,Flu intensity,Mus musculus [1],2300
same,Ratio Ki,Oryza sativa,6.7
same,Activity,[2],283 nm
same,Activity,Mus musculus [3],22.1%
same,Activity,[4],233 nm
same,Drug uptake,[5],Not Active
same,fold change (FC),Mus musculus [6],4
same,Flu intensity,[7],862
same,Activity,Mus musculus [8],19.9%
same,fold change (FC),Mus musculus [9],3
same,Activity,[10],96 nm
same,fold change (FC),Mus musculus [11],6.9
same,Activity,Mus musculus [12],11.5%
same,Activity,[13],Non-Toxic
same,Activity,[14],243 nm
same,Ka,[15],5680 M⁻¹
same,Activity,Mus musculus [16],18.6%
same,Activity,Mus musculus [17],7.6%
same,Drug uptake,[18],Not Active
same,Activity,[19],276 nm
same,Activity,[20],Non-Toxic
same,Activity,[21],195 nm
same,Activity,Mus musculus [22],22.2%
same,Ki,[23],27 nM
same,Activity,Mus musculus [24],419.7 mg/dL
same,Activity,Mus musculus [25],309.9 mg/dL
same,Activity,Mus musculus [26],24.5%
same,Activity,[27],179 nm
same,Activity,Mus musculus [28],302.04 mg/dL
same,Activity,Mus musculus [29],18.8%
same,fold change (FC),Mus musculus [30],1.8
same,Activity,Mus musculus [31],326.5 mg/dL
same,Drug uptake,[32],Active
